Laboratory results reported in patent US7456218B2, “3-(4-benzyloxyphenyl) propanoic acid derivatives” (Takeda Pharmaceutical Company Limited, priority 2003, dated 2008).

Test system: not given
Test: not given
Conditions: not given

melting point [°C] | SMILES
112 to 113 | Cc1cc(OCC2(C)COC2)cc(C)c1-c1cccc(COc2ccc(CCC(=O)O)c(F)c2)c1 [Example 116, 3-[4-({2′,6′-dimethyl-4′-[(3-methyloxetan-3-yl)methoxy]biphenyl-3-yl}methoxy)-2-fluorophenyl]propanoic acid]
124 to 125 | Cc1cc(OS(C)(=O)=O)cc(C)c1-c1cccc(COc2ccc(CCC(=O)O)c(F)c2)c1 [Example 102, 3-[4-({2′,6′-dimethyl-4′-[(methylsulfonyl)oxy]biphenyl-3-yl}methoxy)-2-fluorophenyl]propanoic acid]
55 to 56 | Cc1cccc(COc2cc(C)c(-c3cccc(COc4ccc(CCC(=O)O)c(F)c4)c3)c(C)c2)n1.Cl [Example 97, 3-[4-({2′,6′-dimethyl-4′-[(6-methylpyridin-2-yl)methoxy]biphenyl-3-yl}methoxy)-2-fluorophenyl]propanoic acid hydrochloride]

Target: T1, human GPR40 (Homo sapiens, UniProt O14842)
T1 construct: expressed in transfected cells
Test: Determination of EC50 against human GPR40: changes in intracellular calcium concentration by FLIPR in CHO cells stably expressing human GPR40
Type: cell-based
Conditions: CHO cell line stably expressing human GPR40, Fluo3-AM, read-out: EC50 (Receptor Function Modulating Action On GPR40)
Experimental: Determination of EC50 of the Compound of the Present Invention Against Human GPR40
For determination of EC50, CHO cell line that stably expressed human GPR40 was used. Unless otherwise indicated, the CHO cell line was cultured using α-MEM medium (Invitrogen) containing 10% fetal calf serum (Invitrogen).
The cells cultured to nearly confluent were rinsed with PBS (Invitrogen) on the previous day of the assay, peeled off with 0.05% Trypsin-EDTA solution (Invitrogen) and recovered by centrifugation. The number of the obtained cells was counted, and the cells were diluted such that 3×10^5 cells were contained per 1 mL of the medium, dispensed to a black welled 96-well plate (coster) by 100 μL per well and cultured overnight in a CO2 incubator. Various test compounds were added to the CHO cells thus prepared, and the changes in the intracellular calcium concentration was measured using FLIPR (Molecular Device). The below-mentioned pre-treatment was applied to measure changes in the intracellular calcium concentration by FLIPR.
An assay buffer for adding a fluorescence dye Fluo3-AM (DOJIN) to the cells, or for washing the cells immediately before FLIPR assay was prepared. To a solution of 1M HEPES (pH 7.4, DOJIN, 20 mL) added to HBSS (Invitrogen, 1000 mL) (hereinafter HBSS/HEPES solution) was added a solution (10 mL) obtained by dissolving probenecid (Sigma, 710 mg) in 1N NaOH (5 mL), and adding and mixing an HBSS/HEPES solution (5 mL), and the resulting solution was used as an assay buffer. Fluo3-AM (50 μg) was dissolved in dimethylsulfoxide (Wako, 21 μL), and an equivalent amount of 20% pluronic acid (Molecular Probes) was added and mixed. The solution was added to the assay buffer (10.6 mL) supplemented with fetal calf serum (105 μL) to give a fluorescence dye solution. […], the medium of the CHO cells newly inoculated to the black welled 96-well plate was removed, the fluorescence dye solution was immediately dispensed by 100 μL per well and the cells were cultured in a CO2 incubator for 1 hr to allow intake of the fluorescence dye by the cells. The cells after the culture were washed with the above-mentioned assay buffer and set on FLIPR. The test compound was diluted with dimethylsulfoxide in advance, dispensed to polypropylene 96-well plate (sample plate) by 2 μL, and cryopreserved at −20° C. To the thawed sample plate was added an assay buffer containing 0.015% CHAPS (DOJIN) by 198 μL, and simultaneously set on FLIPR together with the cell plate. After the aforementioned pre-treatment, changes in the intracellular calcium concentration upon addition of various test compounds was measured by FLIPR. Based on the results, a dose-response curve of each test compound was formed and EC50 was calculated.

T1 sequence (O14842 whole entry): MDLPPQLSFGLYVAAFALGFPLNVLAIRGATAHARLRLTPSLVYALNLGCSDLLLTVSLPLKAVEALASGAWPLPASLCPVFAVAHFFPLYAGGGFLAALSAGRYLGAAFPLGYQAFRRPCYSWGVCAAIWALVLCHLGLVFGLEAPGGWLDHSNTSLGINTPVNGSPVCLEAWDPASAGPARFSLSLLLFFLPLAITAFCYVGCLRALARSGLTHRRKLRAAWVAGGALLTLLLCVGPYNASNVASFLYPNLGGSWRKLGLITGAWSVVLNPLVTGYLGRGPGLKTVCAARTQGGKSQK

EC50 [nM] | SMILES
10 | Cc1cc(OCCc2scnc2C)ccc1-c1cccc(COc2ccc(CCC(=O)O)cc2)c1 [Example 14, 3-[4-({2′-methyl-4′-[2-(4-methyl-1,3-thiazol-5-yl)ethoxy]biphenyl-3-yl}methoxy)phenyl]propanoic acid]
15 | Cc1cc(OS(C)(=O)=O)cc(C)c1-c1cccc(COc2ccc(CCC(=O)O)c(F)c2)c1 [Example 102, 3-[4-({2′,6′-dimethyl-4′-[(methylsulfonyl)oxy]biphenyl-3-yl}methoxy)-2-fluorophenyl]propanoic acid]
20 | Cc1cc(OC2CCS(=O)(=O)CC2)cc(C)c1-c1cccc(COc2ccc(CCC(=O)O)c(F)c2)c1 [Example 114, 3-[4-({4′-[(1,1-dioxidotetrahydro-2H-thiopyran-4-yl)oxy]-2′,6′-dimethylbiphenyl-3-yl}methoxy)-2-fluorophenyl]propanoic acid]
32 | CCS(=O)(=O)CCOc1cc(C)c(-c2cccc(COc3ccc(CCC(=O)O)c(F)c3)c2)c(C)c1 [Example 86, 3-[4-({4′-[2-(ethylsulfonyl)ethoxy]-2′,6′-dimethylbiphenyl-3-yl}methoxy)-2-fluorophenyl]propanoic acid]
49 | Cc1cc(C)c(-c2cccc(COc3ccc(CCC(=O)O)c(F)c3)c2)c(COc2ccc(F)cc2)c1 [Example 54, 3-{2-fluoro-4-[(2′-(4-fluorophenoxymethyl)-4′,6′-dimethylbiphenyl-3-yl)methoxy]phenyl}propanoic acid]
17 | Cc1cc(OCC2(O)CCS(=O)(=O)CC2)cc(C)c1-c1cccc(COc2ccc(CCC(=O)O)c(F)c2)c1 [Example 100, 3-[2-fluoro-4-({4′-[(4-hydroxy-1,1-dioxidotetrahydro-2H-thiopyran-4-yl)methoxy]-2′,6′-dimethylbiphenyl-3-yl}methoxy)phenyl]propanoic acid]
16 | CCOCCOc1cc(C)c(-c2cccc(COc3ccc(CC(F)(F)C(=O)O)cc3)c2)c(C)c1 [Example 75, 3-(4-{[4′-(2-ethoxyethoxy)-2′,6′-dimethylbiphenyl-3-yl]methoxy}phenyl)-2,2-difluoropropanoic acid]
11 | COc1ccc(COc2ccc(CCC(=O)O)cc2)cc1-c1ccc(C)cc1C [Example 49, 3-(4-((6-methoxy-2′,4′-dimethylbiphenyl-3-yl)methoxy)phenyl)propanoic acid]
34 | Cc1cc(OCCCN2CCCC2=O)cc(C)c1-c1cccc(COc2ccc(CCC(=O)O)c(F)c2)c1 [Example 90, 3-[4-({2′,6′-dimethyl-4′-[3-(2-oxopyrrolidin-1-yl)propoxy]biphenyl-3-yl}methoxy)-2-fluorophenyl]propanoic acid]
23 | Cc1cccc(COc2cc(C)c(-c3cccc(COc4ccc(CCC(=O)O)c(F)c4)c3)c(C)c2)n1.Cl [Example 97, 3-[4-({2′,6′-dimethyl-4′-[(6-methylpyridin-2-yl)methoxy]biphenyl-3-yl}methoxy)-2-fluorophenyl]propanoic acid hydrochloride]
32 | Cc1cc(OCc2ccccc2)cc(C)c1-c1cccc(COc2ccc(CCC(=O)O)cc2)c1 [Example 39, 3-[4-[[4′-(benzyloxy)-2′,6′-dimethylbiphenyl-3-yl]methoxy]phenyl]propanoic acid]
6.1 | Cc1cc(Cl)ccc1-c1cccc(COc2ccc(CCC(=O)O)cc2)c1 [Example 33, 3-[4-[(4′-chloro-2′-methylbiphenyl-3-yl)methoxy]phenyl]propanoic acid]
